According to patent publication US20250320247A1, “NOVEL D-AMINO ACID DERIVATIVE AND PHARMACEUTICAL COMPOSITION COMPRISING SAME” (SENELIX CO., LTD., priority 2022, published 2025):
Non-standard residues stand in square brackets, D forms with d. Residues, ends and D or L forms follow the SMILES beside them.

Assays:
[1] = test system: TNF-α; experiment: In-vitro anti-inflammatory test: TNF-α production by ELISA in LPS-treated macrophages (RAW 264.7); format: cell-based; conditions: RAW 264.7, LPS 100 ng/ml, test substance 1 μM and 10 μM, 24 hours, vs LPS-only control
Protocol: (§1) Lipopolysaccharide (LPS)-treated macrophages (RAW 264.7) were treated with the compounds prepared in Examples 1 and 2 as test substances, respectively, and the change in the production of inflammatory cytokines (TNF-α and IL-1β) was measured by ELISA and western blotting, respectively.
Specifically, 1×10^4 macrophages (RAW 264.7) were dispensed in each well of a 96-well plate together with 0.1 mL of Dulbecco's modified Eagle's medium (DMEM) containing 10% FBS (GIBCO) and 1% penicillin/streptomycin. After incubation for 1 day in a 5% CO2 incubator at 37° C., when the confluency of the cells reached 80% or higher, LPS (100 ng/ml) and the test substance were treated at concentrations of 1 μM and 10 μM, respectively, and incubated for 24 hours. A control group was treated only with LPS (100 ng/ml) and incubated for 24 hours. The supernatant of each test group was prepared as a sample for ELISA analysis. The production of TNF-α was investigated using an ELISA assay kit (ELISA MAX Standard Set Human TNF-α; BioLegend, #430201) and a microplate reader at 450 nm according to the manufacturer's protocol.

[2] = test system: IL-1β; experiment: In-vitro anti-inflammatory test: IL-1β expression by western blotting in LPS-treated macrophages (RAW 264.7); format: cell-based; conditions: RAW 264.7, LPS 100 ng/ml, test substance 1 μM and 10 μM, 30 minutes, vs LPS-only control
Protocol: as §1
In addition, […] macrophages (RAW 264.7) were dispensed in each well of a 96-well plate together with 0.1 mL of Dulbecco's modified Eagle's medium (DMEM) containing 10% FBS (GIBCO) and 1% penicillin/streptomycin. After incubation for 1 day in a 5% CO2 incubator at 37° C., when the confluency of the cells reached 80% or higher, LPS (100 ng/ml) and the test substance were treated at concentrations of 1 μM and 10 μM, respectively, and incubated for 30 minutes. A control group was treated only with LPS (100 ng/ml) and incubated for 30 minutes. The cells were lysed using an NP40 cell lysis buffer and quantified by Bradford assay. Then, the expression level of IL-1β was measured by western blotting.

[3] = test system: dry eye syndrome-induced C57BL/6NHsd mice; experiment: Dry eye syndrome model: tear volume by phenol red thread test; format: in vivo; conditions: 2 μL/eye, 3 times a day; for tear volume level vs normal control group (G1) / tear volume level vs induced control group (G2): days 5 and 10; for tear volume level vs induced control group (G2): p<0.001, p<0.01 or p<0.05
Protocol: (§2) Dry eye syndrome was induced in specific pathogen-free (SPF) C57BL/6NHsd mice (male, 7 weeks old) [Koatech, Korea]. Specifically, during the dry eye syndrome induction period (from day −10 to day 0), scopolamine hydrobromide dissolved in physiological saline (PBS) was injected subcutaneously into the back skin of mice at a dose of 0.5 mg/0.2 mL, 4 times a day, for 10 days. After measuring the tear volume of the dry eye syndrome-induced mice, the mice were randomly divided into groups of G2 to G6 as shown in Table 1 so that the average tear volume of each group was distributed uniformly. G1 is a normal control group in which dry eye syndrome was not induced.
(§3) From the day of the induction of dry eye syndrome (day 0), the compound prepared in Example 2 as a test substance (i.e., acetate of the compound of the Chemical Formula 1b, hereinafter referred to as ‘Compound 1b’) was dissolved in physiological saline (PBS) at concentrations of 0.1% and 1% and dropped onto the center of the right cornea of the mice of G4 and G5 3 times a day for 10 days, respectively. G2 is a dry eye syndrome-induced control group. For G3, physiological saline (PBS) was dropped onto the center of the cornea of the right eye of the mice in which dry eye syndrome was induced. For G6 (positive control group), Restasis® ophthalmic solution (0.05%, containing cyclosporine) was dropped onto the center of the cornea of the right eye of the dry eye syndrome-induced mice.
Tear volume was measured by phenol red thread (PRT) test. Specifically, on days 5 and 10 after the start of the administration of the test substance, a phenol red thread was placed in the lateral canthus of the eye for 20 seconds and then tear volume (mm) was measured.
(§4) Statistical analysis was performed using Prism 7.04 (GraphPad Software Inc., San Diego, CA, USA), and a p-value smaller than 0.05 was judged to be statistically significant.

[4] = test system: dry eye syndrome-induced C57BL/6NHsd mice; experiment: Dry eye syndrome model: corneal fluorescein staining score (NEI grading); format: in vivo; conditions: 2 μL/eye, 3 times a day, day 5 to day 10; for corneal fluorescein staining score vs PBS group (G3): p<0.001 or p<0.01; for corneal fluorescein staining score vs normal control (G1): p<0.01 or p<0.05
Protocol: as §2, §3, §4

[5] = test system: dry eye syndrome-induced C57BL/6NHsd mice; experiment: Dry eye syndrome model: histopathological examination (H&E) of inflammation; format: in vivo; conditions: day 10; for level of inflammation and fibrosis vs G2 and G3 (histopathology): 2 μL/eye, 3 times a day for 10 days, p<0.001 or p<0.05
Protocol: as §2, §3
On the day of autopsy (day 10), the animal was euthanized and the eyeball was removed to include the conjunctiva and fixed in a 10% neutral buffered formalin solution. Samples for histopathological examination were prepared through the processes of trimming, dehydration, paraffin embedding and thin-sectioning of the fixed tissue, followed by hematoxylin and eosin (H&E) staining. Then, the infiltration of inflammatory cells into the cornea, conjunctiva and anterior chamber was evaluated by optical microscopy (Olympus BX53, Japan). The inflammation of the cornea and conjunctiva was assessed according to the known method. The scoring criteria were as follows. Scores: 0 (normal), 1 (mild), 2 (moderate), 3 (severe).
as §4

[6] = test system: corneal damage-induced Sprague-Dawley rats; experiment: Corneal damage model: corneal fluorescein staining score (NEI grading); format: in vivo; conditions: 10 μL/eye, 3 times a day; for corneal fluorescein staining score vs normal control group (G1): 6 hours to 5 days, p<0.01; for corneal fluorescein staining score vs induced control (G2): at 6 hours and on days 2 to 6, p<0.001, p<0.01 or p<0.05; for corneal fluorescein staining score vs PBS group (G3): days 3 to 6, p<0.001 or p<0.01
Protocol: (§5) Corneal damage was induced in pathogen-free (SPF) Sprague-Dawley rats (male, 7 weeks old) [Koatech, Korea]. Specifically, after anesthetizing the rats, a filter paper soaked in 2 μL of 0.1 M NaOH solution was applied to the center of the cornea of the right eye for about 10 seconds, and then washed with physiological saline. The body weight of the corneal damage-induced rats was measured, and they were randomly divided into groups G2 to G6 as shown in Table 2 so that the average body weight of each group was distributed uniformly. G1 is a normal control group in which corneal damage was not induced.
From the day of the corneal damage (day 0), the compound prepared in Example 2 as a test substance (i.e., acetate of the compound of the Chemical Formula 1b, hereinafter referred to as ‘Compound 1b’) was dissolved in physiological saline (PBS) at concentrations of 0.1% and 1% and instilled into the eye of the mice of G4 and G5 at 10 μL/eye, 3 times a day, for 7 days. G2 is an induced control group in which corneal damage was induced. For G3, physiological saline (PBS) was instilled 10 into the eye of the corneal damage-induced rats. For G6 (positive control), Restasis® ophthalmic solution (0.05%, containing cyclosporine) was instilled into the eye of the corneal damage-induced rats.
as §4

[7] = test system: corneal damage-induced Sprague-Dawley rats; experiment: Corneal damage model: histopathological examination (H&E) of inflammatory cell infiltration; format: in vivo; conditions: 10 μL/eye, 3 times a day for 7 days, day 7
Protocol: as §5, with “induced. […]” for “induced.”
On the day of autopsy (day 7), the animal was euthanized, and the eyeball was removed to include the conjunctiva and fixed in a 10% neutral buffered formalin solution. […] Then, the infiltration of inflammatory cells into the cornea, conjunctiva and anterior chamber was evaluated by optical microscopy (Olympus BX53, Japan). The infiltration of inflammatory cells into the corneal stroma and anterior chamber was evaluated according to the known method. […]

SMILES: NC(=O)C[C@@H](NC(=O)[C@H](N)CC(=O)O)C(=O)N[C@H](CC(=O)O)C(=O)O [Chemical Formula 1a] (H-[dD]-[dN]-[dD]-OH)
- secretion of inflammatory cytokine TNF-α [1]: inhibited in a concentration-dependent manner
- expression of inflammatory cytokine IL-1β [2]: inhibited in a concentration-dependent manner

SMILES: NC(=O)C[C@@H](NC(=O)[C@H](N)CC(=O)O)C(=O)N[C@H](CC(=O)O)C(N)=O [Compound 1b] (H-[dD]-[dN]-[dD]-NH2)
- secretion of inflammatory cytokine TNF-α [1]: inhibited in a concentration-dependent manner
- expression of inflammatory cytokine IL-1β [2]: inhibited in a concentration-dependent manner
- tear volume level vs PBS group (G3) ([3]; G4: 0.1% in PBS, day 10, p<0.001): significantly higher than that of G3
- tear volume level vs normal control group (G1) ([3]; G4: 0.1% in PBS, p<0.001): statistically significantly lower than that of the normal control group (G1)
- tear volume level vs induced control group (G2) ([3]; G4: 0.1% in PBS): significantly higher than that of G2
- tear volume level vs PBS group (G3) ([3]; G5: 1% in PBS, day 5, p<0.01): statistically significantly higher than that of G3
- tear volume level vs PBS group (G3) ([3]; G5: 1% in PBS, day 10, p<0.001): significantly higher than that of G3
- tear volume level vs normal control group (G1) ([3]; G5: 1% in PBS, p<0.001): statistically significantly lower than that of the normal control group (G1)
- tear volume level vs induced control group (G2) ([3]; G5: 1% in PBS): significantly higher than that of G2
- corneal fluorescein staining score vs induced control (G2) ([4]; G4: 0.1% in PBS): significantly lower than that of G2
- corneal fluorescein staining score vs PBS group (G3) ([4]; G4: 0.1% in PBS): statistically significantly lower than that of G3
- corneal fluorescein staining score vs normal control (G1) ([4]; G4: 0.1% in PBS): statistically significantly higher than that of G1
- corneal fluorescein staining score vs induced control (G2) ([4]; G5: 1% in PBS): significantly lower than that of G2
- corneal fluorescein staining score vs PBS group (G3) ([4]; G5: 1% in PBS): statistically significantly lower than that of G3
- corneal fluorescein staining score vs normal control (G1) ([4]; G5: 1% in PBS): statistically significantly higher than that of G1
- inflammation in the cornea and conjunctiva (histopathology) ([5]; 0.1% test substance-administered group): no inflammation was observed
- inflammation in the cornea and conjunctiva (histopathology) ([5]; 1% test substance-administered group): no inflammation was observed
- level of inflammation and fibrosis vs G2 and G3 (histopathology) ([5]; G4: 0.1% in PBS): significantly lower as compared to G2 and G3
- level of inflammation and fibrosis vs G2 and G3 (histopathology) ([5]; G5: 1% in PBS): significantly lower as compared to G2 and G3
- corneal fluorescein staining score vs normal control group (G1) ([6]; G4: 0.1% in PBS): statistically significantly higher than that of the normal control group (G1)
- corneal fluorescein staining score vs induced control (G2) ([6]; G4: 0.1% in PBS): significantly lower than that of G2
- corneal fluorescein staining score vs PBS group (G3) ([6]; G4: 0.1% in PBS): significantly lower than that of G3
- corneal fluorescein staining score vs normal control group (G1) ([6]; G5: 1% in PBS): statistically significantly higher than that of the normal control group (G1)
- corneal fluorescein staining score vs induced control (G2) ([6]; G5: 1% in PBS): significantly lower than that of G2
- corneal fluorescein staining score vs PBS group (G3) ([6]; G5: 1% in PBS): significantly lower than that of G3
- degree of infiltration of inflammatory cells into corneal keratocytes and anterior chamber vs G2 and G3 ([7]; G4: 0.1% in PBS): statistically significantly lower
- degree of infiltration of inflammatory cells into corneal keratocytes and anterior chamber vs G2 and G3 ([7]; G5: 1% in PBS): statistically significantly lower
